According to US3950525A, “Relaxation of smooth muscle in a mammal” (Pfizer Inc., priority 1975, dated 1976):
Counter-ions that a name gives are not always drawn.

Experiments:
[1] = system: histamine aerosol induced bronchoconstriction; assay: Bronchodilator Activity (protection of conscious guinea pigs against histamine aerosol); format: in vivo; settings: Cavia porcellus, 1 h; 60 mg./kg. oral; histamine challenge 60 minutes later; read-out: % Protection
Method: Subsequent to this administration, each animal is challenged with histamine aerosol. […] Immediately after the container is subjected to the histamine spray the animal is placed within it. At the end of one minute of exposure, the respiratory status, which is a reflection of bronchoconstriction, is evaluated. Evaluation levels are designated and scored as normal breathing (0), slight deepened breathing (1), labored breathing (2), severely labored breathing and […] (3) and unconsciousness (4). Each group of animals contains 8 to 10 individual and a control group containing the same approximate number is used. […] The dose, which is given orally, is 60 mg./kg. and the animals are challenged with histamine 60 minutes later.

[2] = system: collagen induced platelet aggregation; assay: In Vitro Inhibition of Platelet Aggregation (collagen induced, rabbit platelet-rich plasma); format: cell-based; settings: Oryctolagus cuniculus, 10 min; for inhibition at 600 µM: 6 × 10^^-4 mol./l.; for inhibition at 60 µM: 6 × 10^^-5 mol./l.; for inhibition at 6 µM: 6 × 10^^-6 mol./l.
Method: The ability of the compounds of the present invention to inhibit platelet aggregation in vitro is measured according to the method of Born, et al., J. Physiol., 168, 178 (1963) and comprises the following procedure: Anesthetized male rabbits are bled from a carotid artery into plastic centrifuge tubes containing 0.1 volume 3% sodium citrate. Platelet-rich plasma is separated by centrifugation at 100 G for 10 minutes at 20° C. […] After 10 minutes of incubation with the platelet-rich plasma at room temperature, collagen, a protein known to cause platelet aggregation, is added (0.27 ml. collagen/4 ml. plasma) and changes in the optical density are followed with a Spectronic 20 colorimeter attached to a Houston Instrument TY Recorder. Platelet aggregation is indicated by a decrease in optical density. The relative potency of the compounds of the present invention are thus rated on their ability to inhibit (percent) collagen induced platelet aggregation.

[3] = system: collagen induced platelet aggregation; assay: In vitro Inhibition of Platelet Aggregation in Human Plasma (collagen induced); format: cell-based; settings: human platelet-rich plasma
Method: Anesthetized male rabbits are bled from a carotid artery into plastic centrifuge tubes containing 0.1 volume 3% sodium citrate. Platelet-rich plasma is separated by centrifugation at 100 G for 10 minutes at 20° C. Plasma from 3 animals is pooled; 5 ml. samples are placed into clear plastic curvettes and stirred at 1000 rpm, followed by the addition of compounds of the present invention at levels of 6 × 10^^-4 , 10^^-5 and 10^^-6 moles/liter. After 10 minutes of incubation with the platelet-rich plasma at room temperature, collagen, a protein known to cause platelet aggregation, is added (0.27 ml. collagen/4 ml. plasma) and changes in the optical density are followed with a Spectronic 20 colorimeter attached to a Houston Instrument TY Recorder. Platelet aggregation is indicated by a decrease in optical density. The relative potency of the compounds of the present invention are thus rated on their ability to inhibit (percent) collagen induced platelet aggregation.
The procedure of Example XLV is repeated except that platelet-rich plasma from nine human volunteers is employed in place of rabbit plasma. 4-(Diethylamino)-6-phenylpyrimidine hydrochloride provides the following inhibition (%) of collagen induced platelet aggregation at the indicated concentrations: […]

[4] = system: collagen induced platelet aggregation; assay: In Vivo Inhibition of Platelet Aggregation (collagen induced aggregation in plasma of dosed dogs); parameters: species or system mongrel dogs; settings: 25 mg./kg. P.O.
Method: The capacity of the compounds of the present invention to inhibit platelet aggregation in a modified in vivo test is measured by the following procedure: Unanesthetized fasted adult mongrel dogs of either sex are dosed orally (P.O.) or intravenously (I.V.) with the particular test compound. Blood samples are taken at hourly intervals and placed in plastic centrifuge tubes containing 0.1 volume 3% sodium citrate. Platelet-rich plasma is separated by centrifugation at 100 G for 10 minutes at 20° C. and treated with a collagen suspension in saline. The effect of two different levels of collagen concentration are examined; the first is a 1:20 dilution, i.e. 1 ml. of collagen suspension per 20 ml. of platelet-rich plasma (high dose), and the second, a 1:40-50 dilution (low dose). Changes in optical density are then followed with a Spectronic 20 colorimeter attached to a Houston Instrument TY Recorder. Platelet aggregation is indicated by a decrease in optical density. […] Measurements are carried out on the hourly samples, allowing for the determination of a duration of the initial effect.

Row | SMILES | inhibition in vivo at 60 mg/kg [1] | inhibition at 600 µM [2] | inhibition at 60 µM [2] | inhibition at 6 µM [2] | further results
1 | CCN(CC)c1cc(-c2cccc([N+](=O)[O-])c2)ncn1 [Ar=3-NO2C6H4; R1=C2H5; R2=C2H5; R3=H, 4-Diethylamino-6-(m-nitrophenyl)pyrimidine hydrochloride] | 20% | 99% | 93% | 25% | 
2 | CCN(CC)c1cc(-c2cccc(NS(C)(=O)=O)c2)ncn1 | 19% | 95% | 21% | 9% | 
3 | CCN(CC)c1cc(-c2ccccc2)ncn1.Cl [Ar=C6H5; R1=C2H5; R2=C2H5; R3=H, 4-Diethylamino-6-phenylpyrimidine hydrochloride] |  | 99% |  | 99% | Mean % Inhibition ([3]; 6 × 10^^-4 mol./l.): 73%; Mean % Inhibition ([3]; 6 × 10^^-5 mol./l.): 59%; Mean % Inhibition ([3]; 6 × 10^^-6 mol./l.): 52%; Mean % Inhibition ([3]; 6 × 10^^-7 mol./l.): 15%; Duration [4]: 5 h; Inhibition to Collagen, High ([4]; high collagen (1:20 dilution)): Complete (complete (95-100%)); Inhibition to Collagen, Low ([4]; low collagen (1:40-50 dilution)): Complete (complete (95-100%))
4 | CCN(CC)c1ncnc(-c2cccc(NC(C)=O)c2)c1C | 43% |  |  |  | 
5 | CCC(=O)Nc1cccc(-c2cc(N(CC)CC)ncn2)c1 [4-diethylamino-6-(m-propionylaminophenyl)pyrimidine] | 30% | 99% | 82% | 13% | 
6 | Cc1c(O)ncnc1-c1ccccc1 [R3=CH3] | 22% |  |  |  | 
7 | CCN(CC)c1cc(-c2cccc(NC(C)=O)c2)ncn1 [Ar=3-CH3CONHC6H4; R1=C2H5; R2=C2H5; R3=H, 4-Diethylamino-6-(m-acetylaminopheny)pyrimidine hydrochloride] | 40% |  | 16% | 14% | 
8 | CCCN(CCC)c1cc(-c2cccc(NC(C)=O)c2)ncn1 [4-di-n-propylamino-6-(m-acetylaminophenyl)-pyrimidine] | 30% | 88% | 29% | 22% | 
